Laboratory results: ChEMBL document CHEMBL1146429, “Stellettamide B, a new indolizidine alkaloid from a sponge of the genus Stelletta” (1997)
The source made the active and inactive calls. The rule behind the calls is not given here.

Assays:
[1] = Induction of cleavage of mRNA at 50 ug/mL
[2] = Induction of cleavage of rRNA at 50 ug/mL
Candida albicans = assay: Antimicrobial activity against Candida albicans at 25 ug/mL by paper-disk method; format: functional; conditions: read-out: IZ

Activity [1] | Activity [2] | Compound | zone of inhibition at 25 µg/mL (Candida albicans) [mm]
Active | Active | CC(C)=CCC[C@@H](C)/C=C/C=C(\C)C(=O)NC(=N)NCCCCNC(=N)N [STELLETTADINE A] | 9
Active | Active | CC(C)=CCC[C@@H](C)/C=C/C=C(\C)C(=O)NC[C@@H]1CC[N+]2(C)CCCC[C@H]12 (stereo partly specified) [STELLETTAMIDE B] | 4
